These are literature values, as cited in patent publication US20080003592A1, “Method for conducting pharmacogenomics-based studies” (priority 2003, published 2008).

For data set [1] the following is noted: depending on the regimen.
The conditions of data set [2]: advanced colorectal cancer.

Structures can show the parent of a compound that is named as a salt.

In the case of `Nc1c2c(nc3ccccc13)CCCC2` [Cognex, tacrine hydrochloride], the patients minimally improved entry (Alzheimer's patients receiving Cognex, controls about 33%) is on record as “About 58%”. In addition, the “patients showing no change or minimal worsening of their disease” value (patients receiving Cognex for Alzheimer's disease, controls about 68%) is recorded as “about 45%”. Further, where the note is “patients receiving Cognex, controls about 1%”, the patients much improved entry was “about 2%”.

As for `O=c1[nH]cc(F)c(=O)[nH]1` [5-fluorouracil], the “patients suffering serious gastrointestinal or hematopoietic toxicity” value in data set [1] is 20-30%. The “patients with an objective response to the drug” value in data set [2] (standard therapy) is reported as 20-40%. In data set [2] (of the patients with an objective response), the “patients with a complete response (complete tumor disappearance)” value is reported as 1-5%.
